{
  "source": "patent EP1543832A2",
  "about": "“Use of trans-4[4-(3-chloro-4-methoxy-benzylamino) benzothieno[2,3-d]pyrimidin-2-yl]-cyclohexanecarboxylic acid in the treatment of extrapyramidal movement disorders” (MERCK PATENT GmbH, priority 2003, dated 2005)",
  "type_in_all_cases": "in vivo",
  "key": {"[1]": {"system": "Parkinsonian cynomolgus monkey", "assay": "Adverse effects of long-term l-dopa treatment in the MPTP Parkinsonian cynomolgus monkey", "conditions": "MPTP monkeys chronically treated with l-dopa", "experimental": "Treatment of adverse effects of conventional anti-Parkinsonian drugs as defined above are determined in a modification of the animal model of the Parkinsonian cynomolgus monkey according to P.J. Blanchet et al., Exp. Neurology 1998; 153: 214-222. Monkeys render parkinsonian by repeated injections of 1-methyl-4-phenyl-1,2,3,6-tetrahydropyridine (MPTP). The Parkinsonian monkeys are chronically treated with the standard I-dopa therapy according to P.J. Blanchet et al., Mov. Disord., 1998; 13: 798-802. Longterm treatment with I-dopa induces extrapyramidal motor side effects and psychotic states which are both qualitatively and quantitatively, assessed by the Abnormal Involuntary Movement Scale (P.J. Blanchet et al., Mov. Disord. 1998; 13: 798-802) for different body parts (face, neck, trunk, each limb) and by rating for psychotic states by observing the monkey's attention, reactivity and mobility. Trans-4-[4-(3-chloro-4-methoxybenzylamino)-benzothieno-[2,3-d]pyrimidin-2-yl]cyclohexane-carboxylic acid reduced overall choreiform dyskinesias and dystonic dyskinesias as well as psychotic states."}, "[2]": {"system": "striatonigral degeneration approach in the rat", "assay": "Striatonigral degeneration model (6-hydroxydopamine plus quinolinic acid), turning behavior", "conditions": "automated recorder", "source_text": "Another more recent animal model is the striatonigral degeneration approach in the rat according to G.K. Wenning et al., J. Neural Transm. Suppl., 1999; 55: 103-113. Rats receive an unilateral injection of 6-hydroxydopamine into the left medial forebrain bundle followed by an injection of quinolinic acid into the ipsilateral striatum inducing nigrostriatal degeneration. The degeneration results in turning behavior to a challenge with dopaminomimetics such as apomorphine or amphetamine. Turning behavior is measured by an automated recorder."}, "[3]": {"system": "neuroleptics-induced muscle rigidity in rats", "assay": "Neuroleptics-induced muscle rigidity (haloperidol challenge)", "conditions": "resistance to passive flexion and extension of the hind limb", "source_text": "A typical animal model is neuroleptics-induced muscle rigidity in rats according to S. Wolfarth et al., Arch. Pharmacol. 1992; 345: 209-212. Rats are challenged with the conventional neuroleptic drug haloperidol which enhances muscle tone. Muscle tone is electromechanically measured as the resistence to passive flexion and extension of the hind limb. Trans-4-[4-(3-chloro-4-methoxybenzylamino)-benzothieno-[2,3-d]pyrimidin-2-yl]cyclo-hexanecarboxylic acid or a physiologically acceptable salt thereof thereof decrease the mucle tone enhanced by haloperidol."}, "[4]": {"system": "Campus Syndrome in the Pietrain pig", "assay": "Campus Syndrome tremor model, accelerometric recording", "source_text": "Typical genetic models in mutant animals are the Campus Syndrome in the Pietrain pig according to A. Richter et al. (Exp. Neurology, 1995; 134: 205-213) or the Weaver mutant mouse according to J.R. Simon and B. Ghetti (Mol. Neurobiol., 1994; 9: 183-189). In the Campus Syndrome model, these mutant pigs show a high-frequency tremor when standing and during locomotion, but not while lying at rest. Assessment of tremor is made by accelerometric recording. In the Weaver mutant mouse, degenerative cerebellar atrophy is fould in association with tremor, gait instability, and toppling over the sides after a few steps.\nTrans-4-[4-(3-chloro-4-methoxybenzylamino)-benzothieno-[2,3-d]pyrimidin-2-yl]cyclohexanecarboxylic acid or a physiologically acceptable salt thereof improve the Campus Syndrome in the Pietrain pig, i.e. reduce disabling tremor when standing and during locomotion, and enhance locomotor activity in the Weaver mutant mouse."}, "[5]": {"system": "oxotremorine-induced tremor", "assay": "Oxotremorine-induced tremor, rating scale", "experimental": "A typical animal model for drug-induced tremors is the oxotremorine-induced tremor (e.g. H. Hallberg and O. Almgren, Acta Physiol. Scand., 1987; 129: 407-13; J.G. Clement and W.R. Dyck, J. Pharmacol. Meth., 1989; 22: 25-36). Oxotremorine induces tremor which is measured by a rating scale. Trans-4-[4-(3-chloro-4-methoxybenzylamino)-benzothieno-[2,3-d]pyrimidin-2-yl]cyclohexanecarboxylic acid or a physiologically acceptable salt thereof inhibit oxotremorine-induced tremors."}, "posthypoxic myoclonus": {"system": "posthypoxic myoclonus", "assay": "Posthypoxic myoclonus after cardiac arrest", "conditions": "rats resuscitated after cardiac arrest for 8 minutes", "experimental": "A typical animal model for myoclonus is myoclonus induced by an acute hypoxic episode according to D.D. Truong et al., Mov. Dsiord., 1994; 9: 201-206). In this model of posthypoxic myoclonus, rats undergo a cardiac arrest for 8 minutes and are resuscitated thereafter. Myoclonic jerks occur spontaneously but can be provoked by auditory stimulation, too, worsening over the days following cardiac arrest."}, "[6]": {"conditions": "Abnormal Involuntary Movement Scale"}},
  "data": [
    {"compound": "COc1ccc(CNc2nc([C@H]3CC[C@H](C(=O)O)CC3)nc3sc4ccccc4c23)cc1Cl", "note": "[trans-4-[4-(3-chloro-4-methoxybenzylamino)-benzothieno-[2,3-d]pyrimidin-2-yl]cyclohexanecarboxylic acid]", "values": [
      {"measurement": "dystonic dyskinesias", "setting": "[1]; [6]", "result": "reduced"},
      {"measurement": "overall choreiform dyskinesias", "setting": "[1]; [6]", "result": "reduced"},
      {"measurement": "psychotic states", "setting": "[1]; rating of attention, reactivity and mobility", "result": "reduced"},
      {"measurement": "Turning behavior induced by apomorphine or amphetamine", "setting": "[2]", "result": "dose-dependently antagonized"},
      {"measurement": "muscle tone enhanced by haloperidol", "setting": "[3]", "result": "decrease"},
      {"measurement": "disabling tremor when standing and during locomotion", "setting": "[4]", "result": "reduce"},
      {"measurement": "oxotremorine-induced tremors", "setting": "[5]", "result": "inhibit"},
      {"measurement": "number of spontaneous and autitory-evoked myoclonic jerks", "setting": "posthypoxic myoclonus", "result": "dose-dependently reduce"}
    ]}
  ]
}
